Results: PubChem BioAssay AID1897 (NMMLSC, 2009)
Active and inactive are the calls of the source. How the calls were made is not given here.

Molecular target: Mitogen-activated protein kinase kinase kinase 2 (Homo sapiens) + Dual specificity mitogen-activated protein kinase kinase 5 (Homo sapiens) (UniProt Q9Y2U5+Q13163)
Experiment: inhibitors of MEK5 binding to MEKK2, dose response, biochemical, bead multiplex flow cytometry, wildtype (AID 1897)
Conditions: MEK5-MEKK2 PB1 binding; for Ki: measured here: Ki from binding competition

Mitogen-activated protein kinase kinase kinase 2 (Homo sapiens) + Dual specificity mitogen-activated protein kinase kinase 5 (Homo sapiens), sequence (Q13163 whole entry, looked up): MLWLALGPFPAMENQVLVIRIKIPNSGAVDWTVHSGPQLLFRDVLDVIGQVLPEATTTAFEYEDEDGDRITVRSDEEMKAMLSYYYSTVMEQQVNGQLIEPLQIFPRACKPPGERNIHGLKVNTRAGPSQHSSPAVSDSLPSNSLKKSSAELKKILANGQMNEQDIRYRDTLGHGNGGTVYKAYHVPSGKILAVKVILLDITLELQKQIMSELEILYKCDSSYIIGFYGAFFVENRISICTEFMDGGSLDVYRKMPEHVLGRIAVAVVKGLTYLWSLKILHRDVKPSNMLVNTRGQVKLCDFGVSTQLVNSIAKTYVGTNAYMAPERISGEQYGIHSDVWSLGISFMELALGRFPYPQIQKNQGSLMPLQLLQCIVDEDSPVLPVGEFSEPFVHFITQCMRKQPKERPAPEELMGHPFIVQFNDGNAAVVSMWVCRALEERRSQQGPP
Mitogen-activated protein kinase kinase kinase 2 (Homo sapiens) + Dual specificity mitogen-activated protein kinase kinase 5 (Homo sapiens), sequence (Q9Y2U5 whole entry, looked up): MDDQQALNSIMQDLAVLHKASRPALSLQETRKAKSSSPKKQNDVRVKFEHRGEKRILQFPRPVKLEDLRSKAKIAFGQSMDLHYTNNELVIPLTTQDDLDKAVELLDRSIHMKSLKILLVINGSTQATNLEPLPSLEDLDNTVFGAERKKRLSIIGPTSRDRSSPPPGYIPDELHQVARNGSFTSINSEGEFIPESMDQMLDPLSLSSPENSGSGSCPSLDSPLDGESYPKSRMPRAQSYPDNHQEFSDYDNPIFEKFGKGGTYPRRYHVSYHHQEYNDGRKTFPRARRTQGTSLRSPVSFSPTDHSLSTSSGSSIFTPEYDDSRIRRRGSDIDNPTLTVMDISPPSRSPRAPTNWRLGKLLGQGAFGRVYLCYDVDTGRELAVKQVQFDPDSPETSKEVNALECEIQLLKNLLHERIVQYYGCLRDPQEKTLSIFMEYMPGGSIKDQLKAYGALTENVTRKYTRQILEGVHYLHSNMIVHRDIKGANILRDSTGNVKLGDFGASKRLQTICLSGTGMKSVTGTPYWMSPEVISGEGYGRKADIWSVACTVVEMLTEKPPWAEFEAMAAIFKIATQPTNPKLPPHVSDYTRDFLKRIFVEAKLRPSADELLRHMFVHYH

| EC50 | Ki [µM] | SMILES |
| --- | --- | --- |
| 2.85 µM | – | CCc1ccc(Nc2n[n+](-c3ccccc3)c(-c3ccc(OC)c(Br)c3)s2)cc1 |
| > 30 µM (inactive) | – | COc1ccc2nc(C)cc(N/N=C/c3cccc(OC)c3O)c2c1 |
| 7.03 µM | – | COC(=O)C1=C(C)N(Cc2ccccc2)C(=NCc2cccc(C(F)(F)F)c2)N[C@H]1c1cccc(F)c1 |
| 20.9 µM | – | CCCCCc1cc(=O)oc2c(C(CCN3CCCC3)c3ccc(N(C)C)cc3)c(OC)cc(OC)c12 (centres undefined) |
| 3.78 µM | – | CCN1CCN(CCNC(=O)c2ccc(/C=C3/Sc4ccccc4N(Cc4cccc(Cl)c4)C3=O)cc2)CC1 |
| > 30 µM (inactive) | – | COc1ccc(-c2[nH]ncc2CN2CCCCCCC2)c(OC)c1 |
| 1.94 µM | – | COc1ccc(/C=N/Nc2cc(C)nc3ccc(Br)cc23)cc1 |
| > 30 µM (inactive) | – | CCN(CC)CCOC(=O)c1ccc(N/C=C(/C#N)c2nc(-c3ccc4c(c3)OCO4)cs2)cc1 |
| 2.6 µM | – | CCCCCCCCCCOC(=O)Cn1c(COc2ccccc2)[n+](C)c2ccccc21 |
| 1.94 µM | – | COc1ccc2nc3cc(Cl)ccc3c(Nc3cc(C(C)C)c(O)cc3C)c2c1 |
| 4.35 µM | – | CN(C)CCCNc1cc(C(C)(C)C)nc2c(-c3ccc(Cl)cc3)cnn12 |
| 0.58 µM | – | CCOC(=O)C1=C(c2ccccc2)NC(N)=NC1c1ccc(OCc2ccc(Cl)cc2)c(OC)c1 (centres undefined) |
| > 30 µM (inactive) | – | CCCCCCCCCCCCCCCC[n+]1cccc2ccccc21 |
| 2.94 µM | – | CCCCCCCCCCCCCCCC[n+]1ccc(/C=N/O)cc1 |
| > 30 µM (inactive) | – | O=C(Nc1ccc(Cl)cn1)c1ccc2c(Cl)c3c(nc2c1)CCC3 |
| > 30 µM (inactive) | – | CCOC(=O)c1c(C)n(-c2ccc(C)cc2)c2ccc(OCC(O)CN3CCN(C)CC3)cc12 (centres undefined) |
| – | 3.59 | Cc1c2cc(O)c(=O)cc-2oc2cc(O)c(O)cc12 |
| 2.03 µM | – | CC[C@@H](C)[C@H](CNC)NC[C@@H](Cc1cccc2ccccc12)NCCc1cccc(C(F)(F)F)c1 |
| > 30 µM (inactive) | – | O=C(c1cc(COc2c(F)cccc2F)on1)N1C[C@H]2CC[C@H]1C2 |
| 5.82 µM | – | CSc1cccc(NC(=S)N(CCCN2CCCC2)Cc2cccn2Cc2ccc(Cl)cc2)c1 |
| > 30 µM (inactive) | – | C#CCOCCOCCOCCNc1nc(N2CCN(C(=O)[C@H]([C@@H](C)CC)n3cc([C@@H](N)CC(C)C)nn3)CC2)nc(N2CCN(C(=O)[C@H](Cc3cc4ccccc4[nH]3)n3cc([C@@H](N)Cc4ccc(O)cc4)nn3)CC2)n1 |
| 4.93 µM | – | CNC[C@H](CC1CCCCC1)NC[C@H](Cc1ccccc1)NCCC12CC3CC(CC(C3)C1)C2 |
| 2.82 µM | 2.53 | CCOC(=O)C(C(=O)OCC)c1cc(Br)c2noc3c2c1C(=O)c1ccccc1-3 |
| 6.12 µM | – | C#CCOCCOCCOCCNc1nc(N2CCN(C(=O)C(Cc3ccc(O)cc3)n3cc(C(N)CC(C)C)nn3)CC2)nc(N2CCN(C(=O)C(Cc3cc4ccccc4[nH]3)n3cc(C(N)Cc4ccc(O)cc4)nn3)CC2)n1 (centres undefined) |
| > 30 µM (inactive) | – | Cc1nc(Nc2cnc(/C=C/c3cc(C(=O)Nc4cccc(C(F)(F)F)c4)ccc3C)cn2)cc(N2CCNCC2)n1 |
| > 30 µM (inactive) | – | CCCCCc1cc(=O)oc2c(C(CCN3CCCC(C)C3)c3ccc4c(c3)OCO4)c(OC)cc(OC)c12 (centres undefined) |
| 5.14 µM | – | C#CCOCCOCCOCCNc1nc(N2CCN(C(=O)[C@H](Cc3ccc(O)cc3)n3cc([C@@H](N)CC(C)C)nn3)CC2)nc(N2CCN(C(=O)[C@H](Cc3cc4ccccc4[nH]3)n3cc([C@@H](N)CC(C)C)nn3)CC2)n1 |
| > 30 µM (inactive) | – | COc1ccccc1N(CN1C(=O)c2ccccc2C1=O)C(=O)c1cccc(C)c1 |
| > 30 µM (inactive) | – | Cc1cc(N=Nc2ccc(C)c(N=Nc3cc(C)c(N)cc3N)c2)c(N)cc1N |

More lines, now with the values behind:

| SMILES | EC50 | Ki [µM] |
| --- | --- | --- |
| C#CCOCCOCCOCCNc1nc(N2CCN(C(=O)[C@H](Cc3cc4ccccc4[nH]3)n3cc([C@@H](N)C(C)CC)nn3)CC2)nc(N2CCN(C(=O)[C@H](CCCCN)n3cc([C@@H](N)CC(C)C)nn3)CC2)n1 (some centres undefined) | 6.9 µM | – |
| CCN1CCN(Cc2ccc(NC(=O)c3cc(NC(=O)c4cnn(-c5ccccc5)c4N)cc(OC)c3)cc2C(F)(F)F)CC1 | > 30 µM (inactive) | – |
| CCCCCc1cc(=O)oc2c(C(CCN3CCCCC3)c3ccc(OC)cc3)c(OC)cc(OC)c12 (centres undefined) | > 30 µM (inactive) | – |
| C#CCOCCOCCOCCNc1nc(N2CCN(C(=O)[C@H](CCCCN)n3cc([C@@H](N)CC(C)C)nn3)CC2)nc(N2CCN(C(=O)[C@H](Cc3cc4ccccc4[nH]3)n3cc([C@@H](N)Cc4ccc(O)cc4)nn3)CC2)n1 | > 30 µM (inactive) | – |
| c1ccc(CNc2nc(NCc3ccccc3)c3ccccc3n2)cc1 | > 30 µM (inactive) | – |
| CCc1ccc(Nc2n[n+](-c3ccccc3)c(-c3cc(OC)c(OC)cc3Br)s2)cc1 | 5.06 µM | – |
| Cc1ccc(-n2cc(CNCCCn3ccnc3C)c(-c3ccc(F)cc3)n2)cc1 | > 30 µM (inactive) | – |
| CC[n+]1c(/C=C/C=C/N(C(C)=O)c2ccccc2)sc2ccccc21 | > 30 µM (inactive) | – |
| CCOC(=O)N1CCN(c2c(N3CCN(c4ccccc4F)CC3)c(=O)c2=O)CC1 | > 30 µM (inactive) | – |
| CCOC(=O)c1c(CSC(=N)N)n(-c2ccc(C)cc2)c2cc(Br)c(OC(C)=O)cc12 | 5.2 µM | – |
| C#CCOCCOCCOCCNc1nc(N2CCN(C(=O)[C@H]([C@@H](C)CC)n3cc([C@@H](N)Cc4ccc(O)cc4)nn3)CC2)nc(N2CCN(C(=O)[C@H](CCCCN)n3cc([C@@H](N)CC(C)C)nn3)CC2)n1 | 10.1 µM | – |
| CCN(CC)CCOC(=O)c1ccc(N/C=C(/C#N)c2nc(-c3ccc(OC)c(OC)c3)cs2)cc1 | > 30 µM (inactive) | – |
| COc1ccc(C2NCCc3c2[nH]c2ccccc32)cc1CN1CCc2cc(OC)c(OC)cc2C1C (centres undefined) | 10.5 µM | – |
| CCCCCc1cc(=O)oc2c(C(CCN3CCCC(C)C3)c3ccc(OC)cc3)c(OC)cc(OC)c12 (centres undefined) | 9.57 µM | – |
| CCOc1cccc2sc(N(CCCN(C)C)C(=O)c3ccc(S(=O)(=O)N4CCc5ccccc5C4)cc3)nc12 | 13.2 µM | – |
| CCCN(CCC)CCNC(=O)c1cc2c(-c3ccc(Cl)cc3)nn(C)c2s1 | 15.1 µM | – |
| FC(F)(F)c1cccc(NC(=S)N(CCCN2CCCC2)Cc2cccn2Cc2ccc(Cl)cc2)c1 | 5.19 µM | – |
| COc1ccc(-c2csc(N(CCCN(C)C)C(=O)c3ccccc3Cl)n2)cc1 | > 30 µM (inactive) | – |
| CC(=O)Nc1cccc2c1C(=O)N(c1cccc(C)c1)C2=O | > 30 µM (inactive) | – |
| O=C1c2ccccc2-c2onc3ccc(NCc4ccco4)c1c23 | > 30 µM (inactive) | – |
| O=C(NNc1c2ccccc2nc2ccccc12)c1cc2ccccc2cc1O | > 30 µM (inactive) | – |
| COCCNC(=O)CN(c1cc(Cl)ccc1OC)S(=O)(=O)c1ccc(C)c([N+](=O)[O-])c1 | > 30 µM (inactive) | – |
| COc1ccc(Cn2c(SCc3ccc(C)cc3)nc3cc(OC)c(OC)cc3c2=N)cc1Cl | 1.97 µM | – |
| CCCCCCCCCCOC(=O)Cn1c(COc2cccc(C)c2)[n+](C)c2ccccc21 | > 30 µM (inactive) | – |
| Cc1ccccc1OCC(O)CNC1CCC(NCC(O)COc2ccccc2C)CC1 (centres undefined) | > 30 µM (inactive) | – |
| NC(N)=N/N=C/c1ccc(OCc2ccc(Cl)cc2Cl)cc1 | 1.91 µM | – |

| SMILES | EC50 | Ki [µM] |
| --- | --- | --- |
| CCCCCCCCCCOC(=O)Cn1c(COc2cccc(OC)c2)[n+](C)c2ccccc21 | 4.33 µM | – |
| CCCSc1ncnc2sc(C)c(C)c12 | > 30 µM (inactive) | – |
| C#CCOCCOCCOCCNc1nc(N2CCN(C(=O)C([C@@H](C)CC)n3cc(C(N)COC(=O)C(F)(F)F)nn3)CC2)nc(N2CCN(C(=O)[C@H](CCCCN)n3cc(C(N)[C@H](C)CC)nn3)CC2)n1 (some centres undefined) | > 30 µM (inactive) | – |
| C#CCOCCOCCOCCNc1nc(N2CCN(C(=O)[C@H](Cc3ccc(O)cc3)n3cc([C@@H](N)CC(C)C)nn3)CC2)nc(N2CCN(C(=O)[C@H](Cc3ccc(O)cc3)n3cc([C@@H](N)CC(C)C)nn3)CC2)n1 | 8.71 µM | – |
| CN(C)CCCn1c(SCC(=O)Nc2nc(-c3cccc(Br)c3)cs2)nc2ccccc2c1=O | > 30 µM (inactive) | – |
| COc1ccc2nc(C)cc(N/N=C/c3ccc(F)cc3)c2c1 | > 30 µM (inactive) | – |
| Cc1ccc(-c2csc(NC(=O)C[n+]3cc(-c4ccc(C)cc4)n4c3CCC4)n2)cc1 | > 30 µM (inactive) | – |
| COCc1c(C#N)c(NCCc2ccccc2)nc(C)c1[N+](=O)[O-] | > 30 µM (inactive) | – |
| CCC(/C=C1\Sc2ccc(OC)cc2N1CCO)=C\c1sc2ccc(OC)cc2[n+]1CCO | 0.87 µM | 0.78 |
| CCCCCCCCCCOC(=O)Cn1c(COc2ccc(C)cc2)[n+](C)c2ccccc21 | 1.8 µM | – |
| CCCCCCOc1ccc(/C(C)=N/NC2=NCCN2)cc1[N+](=O)[O-] | 9.29 µM | – |
| CN(C)c1ccc(NC(=O)CN2CCC(O)(c3ccccc3)CC2)cc1 | > 30 µM (inactive) | – |
| C#CCOCCOCCOCCNc1nc(N2CCN(C(=O)[C@H](CCC(=O)O)n3cc(C(N)CO)nn3)CC2)nc(N2CCN(C(=O)[C@H](Cc3cc4ccccc4[nH]3)n3cc(C(N)[C@H](C)CC)nn3)CC2)n1 (some centres undefined) | > 30 µM (inactive) | – |
| COc1ccc(Cn2c(SCc3ccccc3C)nc3cc(OC)c(OC)cc3c2=N)cc1 | > 30 µM (inactive) | – |
| CN1CCN(c2ccc(NC(=O)c3ccc(-c4ccc(Cl)cc4)o3)cc2)CC1 | 2.26 µM | 2.02 |
| COc1ccc2[nH]c3c(C)c4ccncc4c(C)c3c2c1 | > 30 µM (inactive) | – |
| CCN1/C(=C/C(C)=C/c2sc3ccccc3[n+]2CC)Sc2ccccc21 | 0.53 µM | 0.47 |
| S=c1[nH]nc(-c2ccc(Cl)cc2)n1-c1ccc2c(c1)OCCO2 | > 30 µM (inactive) | – |
| COc1ccc(Cn2cc3c(-c4ccc(F)cc4)nnc-3c3cc(OC)c(OC)cc32)cc1 | 1.15 µM | – |
| CCN(CC)CCOC(=O)c1ccc(NC(=O)c2cn(-c3ccccc3)nc2-c2cccs2)cc1 | > 30 µM (inactive) | – |
| CCN1/C(=C\c2ccc3cc(C)ccc3[n+]2CC)Sc2cc(C)c(C)cc21 | > 30 µM (inactive) | – |
| CCCCCCCCCCOC(=O)Cn1c(COc2ccccc2OC)[n+](C)c2ccccc21 | 3.05 µM | – |
| C#CCOCCOCCOCCNc1nc(N2CCN(C(=O)[C@H]([C@@H](C)CC)n3cc([C@@H](N)Cc4ccc(O)cc4)nn3)CC2)nc(N2CCN(C(=O)[C@H](Cc3cc4ccccc4[nH]3)n3cc([C@@H](N)C(C)CC)nn3)CC2)n1 (some centres undefined) | 3.73 µM | – |
| CCN(CC)CCOc1ccc2c(c1)C(=NNC(=O)c1ccccn1)c1cc(OCCN(CC)CC)ccc1-2 | 5.71 µM | – |
| Cc1ccc(-c2c[n+](CC(=O)Nc3nc(-c4ccc(F)cc4)cs3)c3n2CCC3)cc1 | 9.91 µM | – |
